{"source": "patent US5874442A", "about": "“Tricyclic amides useful for inhibition of G-protein function and for treatment of proliferative disease” (Schering-Plough Corporation, priority 1996, dated 1999)", "key": {"A549": {"tested_on": "A549", "assay": "Soft agar assay", "assay_type": "cell-based", "details": "Homo sapiens; A549 (lung) K ras mutation; read-out: IC50, inhibition of human tumor cell growth, soft agar", "procedure": "(§1) Anchorage-independent growth is a characteristic of tumorigenic cell lines. Human tumor cells are suspended in growth medium containing 0.3% agarose and an indicated concentration of a farnesyl transferase inhibitor. The solution is overlayed onto growth medium solidified with 0.6% agarose containing the same concentration of farnesyl transferase inhibitor as the top layer. […] After incubation, the colonies are stained by overlaying the agar with a solution of MTT (3-[4,5-dimethylthiazol-2-yl]-2,5-diphenyltetrazolium bromide, Thiazolyl blue) (1 mg/mL in PBS). Colonies are counted and the IC50's determined."}, "HTB 177": {"tested_on": "HTB 177", "assay": "Soft agar assay", "assay_type": "cell-based", "details": "Homo sapiens; HTB 177 (NSCLC) K ras mutation; read-out: IC50, inhibition of human tumor cell growth, soft agar", "procedure": "as §1"}, "HTB 175": {"tested_on": "HTB 175", "assay": "Soft agar assay", "assay_type": "cell-based", "details": "Homo sapiens; HTB 175 (SCLC) ras mut. not detected; read-out: IC50, inhibition of human tumor cell growth, soft agar", "procedure": "as §1"}, "[1]": {"tested_on": "Ras-CVLS processing in COS cells", "assay": "Cell-based COS cell assay: inhibition of Ras processing (Ras-CVLS)", "set-up": "species or system monkey", "details": "Primates, COS, read-out: Inhibition of Ras Processing IC50, Table 3, COS cells", "excerpt": "Transient expression of val^12 -Ha-Ras-CVLS and […] -Ha-Ras-CVLL in COS monkey kidney cells: Effect of farnesyl protein transferase inhibitors on Ras processing and on disordered cell growth induced by transforming Ras.\nCOS monkey kidney cells were transfected by electroporation with the plasmid pSV-SPORT (Gibco/BRL) containing a cDNA insert encoding either Ras-CVLS or Ras-CVLL, leading to transient overexpression of a Ras substrate for either farnesyl protein transferase or geranylgeranyl protein transferase I, respectively (see above).\nFollowing electroporation, cells were plated into 6-well tissue culture dishes containing 1.5 ml of Dulbecco's-modified Eagle's media (GIBCO, Inc.) supplemented with 10% fetal calf serum and the appropriate farnesyl protein transferase inhibitors. After 24 hours, media was removed and fresh media containing the appropriate drugs was re-added.\n48 hours after electroporation cells were examined under the microscope to monitor disordered cell growth induced by transforming Ras. Cells expressing transforming Ras become more rounded and refractile and overgrow the monolayer, reminiscent of the transformed phenotype. Cells were then photographed, washed twice with 1 ml of cold phosphate-buffered saline (PBS) and removed from the dish by scraping with a rubber policeman into 1 ml of a buffer containing 25 mM Tris, pH 8.0; 1 mM ethylenediamine tetraacetic acid; 1 mM phenylmethylsulfonyl fluoride; […]; and 0.1 mM pepstatin. Cells were lysed by homogenization and cell debris was removed by centrifugation at 2000× g for 10 min.\nCellular protein was precipitated by addition of ice-cold trichloroacetic acid and redissolved in […] of SDS-electrophoresis sample buffer. […] Proteins resolved on the gels were electroblotted onto nitrocellulose membranes for immunodetection.\nAfter washing, membranes were incubated for one hour at room temperature with a 1:5000 dilution of secondary antibody, rabbit anti-rat lgG conjugated to horseradish peroxidase, in PBS containing 1% fetal calf serum. The presence of processed and unprocessed Ras-CVLS or Ras-CVLL was detected using a colorimetric peroxidase reagent (4-chloro-1-naphthol) as described by the manufacturer (Bio-Rad)."}, "[2]": {"tested_on": "T24-BAG4 human bladder carcinoma cells expressing an activated H-ras gene", "assay": "Cell mat assay, T24-BAG4 tumor cells", "assay_type": "cell-based", "details": "Homo sapiens, 336 h, read-out: Tumor (T-24) IC50", "procedure": "(§2) Compound-induced colony inhibition was assayed by addition of serial dilutions of compound directly to the growth medium 24 h after tumor cell planting, and incubating cells for an additional 14 d to allow colony formation. Assays were terminated by rinsing monolayers twice with phosphate-buffered saline (PBS), fixing the monolayers with a 1% glutaraldehyde solution in PBS, then visualizing tumor cells by staining with X-Gal (Price, J., et al., Lineage analysis in the vertebrate nervous system by retrovirus-mediated gene transfer, Proc. Natl. Acad. Sci.84, 156-160(1987)). […] Both IC50 values were obtained by determining the density of tumor cells and mat cells by visual inspection and enumeration of cells per colony and the number of colonies under the microscope."}, "[3]": {"tested_on": "DLD-1-BAG human colon carcinoma cells", "assay": "Cell mat assay, DLD-1-BAG tumor cells", "assay_type": "cell-based", "details": "Homo sapiens, DLD-1, 336 h, read-out: Tumor (DLD-1) IC50", "procedure": "as §2\n(§3) Additional assays were carried out by following essentially the same procedure as described above, but with substitution of alternative indicator tumor cell lines in place of the T24-BAG cells. The assays were conducted using either DLD-1-BAG human colon carcinoma cells expressing as activated K-ras gene or SW620-BAG human colon carcinoma cells expressing an activated K-ras gene."}, "[4]": {"tested_on": "SW620-BAG human colon carcinoma cells expressing an activated K-ras gene", "assay": "Cell mat assay, SW620-BAG tumor cells", "assay_type": "cell-based", "details": "Homo sapiens, SW-620, 336 h, read-out: Tumor (SW620) IC50, Mat assay, 14 d", "procedure": "as §2, §3"}, "H ras NIH 3T3": {"tested_on": "H ras NIH 3T3", "assay": "Soft agar assay", "assay_type": "cell-based", "details": "Mus musculus, NIH3T3, read-out: IC50, inhibition of human tumor cell growth, soft agar"}, "[5]": {"tested_on": "Normal human HEPM fibroblasts", "assay": "Cell mat assay, normal cells (cell mat)", "assay_type": "cell-based", "details": "Homo sapiens, Fibroblast, 336 h, read-out: Normal IC50", "procedure": "as §2"}, "MDA MB 468": {"tested_on": "MDA MB 468", "assay": "Soft agar assay", "assay_type": "cell-based", "details": "Homo sapiens; MDA MB 468 (breast) ras mut. not detected; read-out: IC50, inhibition of human tumor cell growth, soft agar", "procedure": "(§4) Anchorage-independent growth is a characteristic of tumorigenic cell lines. Human tumor cells are suspended in growth medium containing 0.3% agarose and an indicated concentration of a farnesyl transferase inhibitor. The solution is overlayed onto growth medium solidified with 0.6% agarose containing the same concentration of farnesyl transferase inhibitor as the top layer. After the top layer is solidified, plates are incubated for 10-16 days at 37° C. under 5% CO2 to allow colony outgrowth. After incubation, the colonies are stained by overlaying the agar with a solution of MTT (3-[4,5-dimethylthiazol-2-yl]-2,5-diphenyltetrazolium bromide, Thiazolyl blue) (1 mg/mL in PBS). Colonies are counted and the IC50's determined."}, "MDA MB453 (breast)": {"tested_on": "MDA MB453 (breast)", "assay": "Soft agar assay", "assay_type": "cell-based", "details": "Homo sapiens, MDA-MB-453, read-out: IC50, inhibition of human tumor cell growth, soft agar", "procedure": "as §4"}, "HTB 183 (NCI H661)": {"tested_on": "HTB 183 (NCI H661)", "assay": "Soft agar assay", "assay_type": "cell-based", "details": "Homo sapiens; HTB 183 (NCI H661) (NSCLC) ras mut. not detected; read-out: IC50, inhibition of human tumor cell growth, soft agar", "procedure": "as §4"}, "DLD 1": {"tested_on": "DLD 1", "assay": "Soft agar assay", "assay_type": "cell-based", "details": "Homo sapiens; DLD 1 (colon) K ras mutation; read-out: IC50, inhibition of human tumor cell growth, soft agar", "procedure": "as §4"}}, "data": [{"smiles": "NC(=O)N1CCC(CC(=O)N2CCC([C@H]3c4ncc(Br)cc4CCc4cc(Cl)cc(Br)c43)CC2)CC1", "note": "[Example 10]", "values": [{"measurement": "IC50", "setting": "A549", "value": 0.15, "unit": "µM"}, {"measurement": "IC50", "setting": "HTB 177", "value": 0.04, "unit": "µM"}, {"measurement": "IC50", "setting": "HTB 175", "value": 0.25, "unit": "µM"}, {"measurement": "IC50", "setting": "[1]", "value": "< 0.025", "unit": "µM"}, {"measurement": "IC50", "setting": "[2]", "value": "< 1.6", "unit": "µM"}, {"measurement": "IC50", "setting": "[3]", "value": "< 1.6", "unit": "µM"}, {"measurement": "IC50", "setting": "[4]", "value": 3.1, "unit": "µM"}, {"measurement": "IC50", "setting": "H ras NIH 3T3", "value": 0.075, "unit": "µM"}, {"measurement": "IC50", "setting": "[5]", "value": "> 25", "unit": "µM"}, {"measurement": "IC50", "setting": "MDA MB 468", "value": 0.6, "unit": "µM"}, {"measurement": "IC50", "setting": "MDA MB453 (breast)", "value": 0.6, "unit": "µM"}, {"measurement": "IC50", "setting": "HTB 183 (NCI H661)", "value": 0.5, "unit": "µM"}, {"measurement": "IC50", "setting": "DLD 1", "value": 2.5, "unit": "µM"}]}]}
